Reference: patent US10745401B2, “Condensed lactam derivative” (Sumitomo Dainippon Pharma Co., Ltd., priority 2018, dated 2020)

Tests used:
human 5-HT1A receptor [1] = target: T1, human 5-HT1A receptor (Homo sapiens (Human), UniProt P08908); experiment: Test 1: binding activity for human 5-HT1A receptor ([3H]8-OH-DPAT, CHO cell membrane fraction)
Procedure, shortened: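 Membranes incubated with [3H]8-OH-DPAT and compound for 60 min at room temperature, then filtered on polyethylenimine-coated glass-fibre plates and counted by liquid scintillation. IC50 from Hill analysis; Ki = IC50/(1+S/Kd), Kd from saturation binding on the same membranes.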

human 5-HT2A receptor [2] = target: T2, human 5-HT2A receptor (Homo sapiens (Human), UniProt P28223); experiment: Test 1: binding activity for human 5-HT2A receptor ([3H]Ketanserin, CHO cell membrane fraction)
T2 sequence (P28223 whole entry): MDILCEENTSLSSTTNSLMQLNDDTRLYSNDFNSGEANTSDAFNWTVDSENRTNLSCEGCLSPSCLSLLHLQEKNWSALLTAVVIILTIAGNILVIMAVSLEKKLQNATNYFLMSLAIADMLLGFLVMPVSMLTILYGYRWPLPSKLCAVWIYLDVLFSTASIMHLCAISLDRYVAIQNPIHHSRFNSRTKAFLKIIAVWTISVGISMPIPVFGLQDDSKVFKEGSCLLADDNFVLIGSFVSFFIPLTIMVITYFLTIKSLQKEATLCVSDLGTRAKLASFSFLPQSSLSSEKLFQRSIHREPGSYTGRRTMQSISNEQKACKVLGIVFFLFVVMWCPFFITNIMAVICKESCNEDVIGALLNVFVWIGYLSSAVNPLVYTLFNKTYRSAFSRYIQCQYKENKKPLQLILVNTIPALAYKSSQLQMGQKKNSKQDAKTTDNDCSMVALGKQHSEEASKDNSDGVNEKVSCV
Procedure: Test 1: Evaluation of Binding Activity for Human 5-HT1A Receptor, Human 5-HT2A Receptor, and Human D2 Receptor
Binding affinity of the present compound for human 5-HT1A receptor, human 5-HT2A receptor, and human D2 receptor was measured by the following procedures.
Each mixture was incubated at room temperature for 60 minutes. Then, the mixture was added quickly on a glassfiber filter plate (Multiscreen FB, Millipore, Inc.) coated with 0.3% aqueous polyethylenimine, and vacuum-filtered. Radioactivity remaining on the filter was measured with a liquid scintillation counter (PerkinElmer, Inc.). Binding inhibition rate was calculated from the following formula.
Ki of each compound was calculated from the following formula. Binding inhibition constant (Ki)=IC50/(1+S/Kd) wherein S is concentration of ligand; Kd is a binding dissociation constant of ligand to membrane, which is calculated from a saturated binding experiment conducted with the same cell membrane. A small Ki value means strong binding ability to a receptor.

human D2 receptor = human D2 receptor (Homo sapiens (Human), UniProt P14416); experiment: Test 1: binding activity for human D2 receptor ([3H]Spiperone, CHO cell membrane fraction); settings: for Ki: human D2 receptor, [3H]Spiperone; for D2 Ki/5-HT1A Ki / D2 Ki/5-HT2A Ki: selectivity ratio
Chain of human D2 receptor (P14416 whole entry): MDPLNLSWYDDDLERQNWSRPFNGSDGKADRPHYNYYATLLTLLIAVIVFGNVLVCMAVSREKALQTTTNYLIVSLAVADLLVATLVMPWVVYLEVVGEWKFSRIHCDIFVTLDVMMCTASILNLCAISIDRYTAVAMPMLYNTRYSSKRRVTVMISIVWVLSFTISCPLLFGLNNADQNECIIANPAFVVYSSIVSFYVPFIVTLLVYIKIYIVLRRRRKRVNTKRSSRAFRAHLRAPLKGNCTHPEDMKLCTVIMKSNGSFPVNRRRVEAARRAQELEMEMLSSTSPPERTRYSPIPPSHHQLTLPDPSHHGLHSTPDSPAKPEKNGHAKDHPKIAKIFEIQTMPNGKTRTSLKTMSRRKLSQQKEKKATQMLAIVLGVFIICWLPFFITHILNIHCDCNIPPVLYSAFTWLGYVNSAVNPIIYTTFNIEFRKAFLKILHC
Procedure, shortened: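 Compound displacement of [3H]ketanserin at 5-HT2A or [3H]spiperone at D2 was measured in CHO membrane fractions after 60 min at room temperature, with filtration and scintillation counting. IC50 was converted to Ki by Cheng–Prusoff using ligand concentration and Kd from saturation binding.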

human 5-HT1A receptor [3] = target: T1, human 5-HT1A receptor; experiment: Test 2: agonist activity for human 5-HT1A receptor ([35S]GTPγS binding); type: biochemical; settings: for EC50: [35S]GTPγS binding, concentration at which half the activity of Emax was obtained; for Emax at 10 µM: agonist activity in the presence of 10 μM of compound, relative to 100 μmol/L 5-HT
Procedure, shortened: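 [35S]GTPγS binding read-out: after 60 min at room temperature with test compound in GDP buffer, human 5-HT1A receptor CHO membranes were vacuum-filtered and retained radioactivity scintillation-counted. Agonist activity calculated by formula.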

human 5-HT2A receptor [4] = target: T2, human 5-HT2A receptor; experiment: Test 3: antagonist activity for human 5-HT2A receptor (aequorin luminescence, CHO-K1 cells); type: cell-based; settings: CHO-K1 cells, 1 nmol/L 5-HT
Procedure: Test 3: Evaluation of Antagonist Activity for Human 5-HT2A Receptor
Aequorin, Gα16 protein, and each receptor were transiently expressed in CHO-K1 cells (Chinese hamster ovary). […] Each compound dissolved in DMSO was added thereto, and changes in luminescence were measured by FDSS/μCELL functional drug screening system (Hamamatsu Photonics K.K.). Antagonist activity was calculated from the following formula. Antagonist activity (%)=100×{(Luminescence of well in the presence of 1 nmol/L 5-HT−Luminescence of well containing solvent)−(Luminescence of well in the presence of test compound and 1 nmol/L 5-HT−Luminescence of well containing solvent)}/(Luminescence of well in the presence of 1 nmol/L 5-HT−Luminescence of well containing solvent)

[5] = Test 4: metabolic stability test in human hepatic microsome; type: in vitro ADME; settings: 0.1 mg/mL microsome, 0.1 μmol/L compound, 37° C., 30 minutes
Procedure, shortened: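 LC-MS quantified remaining parent after 30 min, 37° C, in pH 7.4 25 mmol/L phosphate containing 0.1 mg/mL human hepatic microsomes, 3.2 mmol/L NADPH and 0.1 μmol/L test compound. Value given as −LN(residual ratio)/30/0.1, mL/min/mg protein.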

hERG channel = hERG channel (Homo sapiens (Human), UniProt Q12809); experiment: Test 6-1: inhibitory activity for hERG channel (auto patch clamp, Qpatch); type: cell-based; settings: for hERG inhibition IC50 (nmol/L)/5-HT1A Ki (nmol/L): ratio of hERG IC50 to 5-HT1A Ki; for hERG inhibition IC50 (nmol/L)/5-HT2A Ki (nmol/L): ratio of hERG IC50 to 5-HT2A Ki; for IC50: whole cell auto patch clamp, hERG-CHO cells, read-out: hERG inhibition IC50
Chain of hERG channel (Q12809 whole entry): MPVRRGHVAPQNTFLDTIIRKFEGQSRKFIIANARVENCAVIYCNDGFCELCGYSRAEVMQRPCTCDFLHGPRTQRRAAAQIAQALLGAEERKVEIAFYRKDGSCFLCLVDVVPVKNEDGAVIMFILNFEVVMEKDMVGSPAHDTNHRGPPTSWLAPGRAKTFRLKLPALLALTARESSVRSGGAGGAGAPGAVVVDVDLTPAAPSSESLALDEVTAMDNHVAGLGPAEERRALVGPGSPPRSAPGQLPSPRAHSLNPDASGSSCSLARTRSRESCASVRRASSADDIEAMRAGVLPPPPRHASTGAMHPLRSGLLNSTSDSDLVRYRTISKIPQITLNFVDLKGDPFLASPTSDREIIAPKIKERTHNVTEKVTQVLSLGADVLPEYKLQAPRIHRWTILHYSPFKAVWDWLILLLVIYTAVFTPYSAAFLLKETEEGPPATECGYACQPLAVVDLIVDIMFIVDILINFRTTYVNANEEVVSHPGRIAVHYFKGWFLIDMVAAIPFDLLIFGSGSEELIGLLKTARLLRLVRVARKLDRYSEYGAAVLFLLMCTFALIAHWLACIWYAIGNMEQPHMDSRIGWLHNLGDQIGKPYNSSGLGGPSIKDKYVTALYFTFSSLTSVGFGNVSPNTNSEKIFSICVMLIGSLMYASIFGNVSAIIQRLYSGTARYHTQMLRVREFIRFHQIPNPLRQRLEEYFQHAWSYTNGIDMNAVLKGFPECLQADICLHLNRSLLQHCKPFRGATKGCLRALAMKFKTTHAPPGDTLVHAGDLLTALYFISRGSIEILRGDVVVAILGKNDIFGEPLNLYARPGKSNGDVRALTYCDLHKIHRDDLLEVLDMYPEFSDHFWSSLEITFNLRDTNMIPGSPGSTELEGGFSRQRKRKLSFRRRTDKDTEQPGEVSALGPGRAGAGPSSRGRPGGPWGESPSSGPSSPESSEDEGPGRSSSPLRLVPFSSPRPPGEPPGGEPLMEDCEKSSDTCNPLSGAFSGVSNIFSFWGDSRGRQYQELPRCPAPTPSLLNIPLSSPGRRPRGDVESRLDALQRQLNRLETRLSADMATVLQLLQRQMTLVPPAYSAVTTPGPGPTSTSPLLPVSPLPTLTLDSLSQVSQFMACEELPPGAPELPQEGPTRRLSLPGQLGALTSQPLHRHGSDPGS
Procedure, shortened: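 Whole-cell patch clamp on an automated system using CHO cells stably expressing human hERG (IKr); 15 s pulse interval. Four increasing compound concentrations applied cumulatively; mean peak tail current from last 3 stimulations per concentration used. IC50 from inhibition versus pre-compound current, fitted by Hill equation.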

T1 sequence (P08908 whole entry): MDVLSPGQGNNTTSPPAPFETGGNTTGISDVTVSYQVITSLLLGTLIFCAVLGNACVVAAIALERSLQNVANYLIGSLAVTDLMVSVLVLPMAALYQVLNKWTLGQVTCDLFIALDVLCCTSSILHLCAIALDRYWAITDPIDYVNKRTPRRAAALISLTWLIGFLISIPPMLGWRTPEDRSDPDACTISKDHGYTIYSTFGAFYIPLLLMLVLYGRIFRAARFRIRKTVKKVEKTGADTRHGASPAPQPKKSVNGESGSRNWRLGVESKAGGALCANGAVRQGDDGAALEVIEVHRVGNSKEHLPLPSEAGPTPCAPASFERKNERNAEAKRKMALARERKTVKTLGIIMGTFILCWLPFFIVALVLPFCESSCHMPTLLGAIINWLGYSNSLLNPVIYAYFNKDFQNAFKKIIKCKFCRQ

| SMILES | Ki (human 5-HT1A receptor [1]) | Ki (human 5-HT2A receptor [2]) | Ki (human D2 receptor) | D2 Ki/5-HT1A Ki (human D2 receptor) | D2 Ki/5-HT2A Ki (human D2 receptor) | EC50 (human 5-HT1A receptor [3]) | Emax at 10 µM (human 5-HT1A receptor [3]) | IC50 (human 5-HT2A receptor [4]) | Metabolic stability in human hepatic microsome [5] | hERG inhibition IC50 (nmol/L)/5-HT1A Ki (nmol/L) (hERG channel) | hERG inhibition IC50 (nmol/L)/5-HT2A Ki (nmol/L) (hERG channel) | IC50 (hERG channel) | IC50 (human 5-HT2A receptor [4]; aequorin luminescence) |
| --- | --- | --- | --- | --- | --- | --- | --- | --- | --- | --- | --- | --- | --- |
| O=C1c2cnc(OC3COC3)cc2CCN1CCN1CCN(c2nsc3ccccc23)CC1 [Example 111, 2-{2-[4-(1,2-Benzoisothiazol-3-yl)piperazin-1-yl]ethyl}-6-[(oxetan-3-yl)oxy]-3,4-dihydro-2,7-naphthyridin-1(2H)-one] | 0.91 nM | 1.9 nM | 1010 nM | 1105 | 530 | 4.58 nM | 51% | 17 nM | 0.254 mL/min/mg protein | 2052 | 984 | 1900 nM | – |
| Cc1noc2c1C(=O)N(CCN1CCC(c3noc4ccccc34)CC1)CCC2 [Example 38] | 13.5 nM | 4.44 nM | – | – | – | 395 nM | 56% | 24 nM | 0.136 mL/min/mg protein | – | – | 500 nM | – |
| Cc1ncc2c(n1)CCN(CCN1CCN(c3noc4ccccc34)CC1)C2=O [Example 179] | 283 nM | 22.9 nM | > 10000 nM | >35.3 | >437.6 | – | – | – | <0.05 mL/min/mg protein | >35 | >438 | > 10000 nM | 70.8 nM |
| CC1(CCN2CCN(c3noc4ccccc34)CC2)CCc2cccnc2C1=O (stereo not shown) [Example 145] | 38.1 nM | 1.15 nM | – | – | – | 55.1 nM | 58% | – | 0.302 mL/min/mg protein | – | – | > 3000 nM | 19 nM |
| Cn1ncc2c1C(=O)N(CCN1CCN(c3nsc4ccccc34)CC1)CCC2 [Example 47] | 16.9 nM | 17.9 nM | – | – | – | 92.2 nM | 65% | 4.96 nM | 0.418 mL/min/mg protein | – | – | 4000 nM | – |
| O=C1c2ncoc2CCN1CCN1CCC(c2noc3ccccc23)CC1 [Example 190, 5-{2-[4-(1,2-Benzoisoxazol-3-yl)piperidin-1-yl]ethyl}-6,7-dihydro[1,3]oxazolo[4,5-c]pyridin-4(5H)-one] | 50 nM | 51.4 nM | 2460 nM | 49.3 | 47.9 | 7210 nM | 11% | – | <0.05 mL/min/mg protein | 32 | 31 | 1600 nM | 237 nM |
| Cc1nc2c(o1)C(=O)N(CCN1CCC(c3noc4ccccc34)CC1)CCC2 [Example 154] | 20.2 nM | 13.1 nM | 718 nM | 35.6 | 54.9 | 45.1 nM | 58% | – | <0.05 mL/min/mg protein | 35 | 54 | 700 nM | 316 nM |
| Cc1nc2c(o1)C(=O)N(CCN1CCC(c3noc4ccccc34)CC1)CC2 [Example 35, 5-{2-[4-(1,2-Benzoisoxazol-3-yl)piperidin-1-yl]ethyl}-2-methyl-6,7-dihydro[1,3]oxazolo[5,4-c]pyridin-4(5H)-one] | 3.3 nM | 9.3 nM | 1290 nM | 391 | 139 | 72 nM | 68% | 74 nM | <0.01 mL/min/mg protein | 453 | 161 | 1500 nM | – |
| CC(C)c1ncc2c(n1)CCN(CCN1CCN(c3nsc4ccccc34)CC1)C2=O [Example 180] | 32.2 nM | 4.28 nM | 1560 nM | 48.3 | 363.5 | 1260 nM | 37% | – | 0.469 mL/min/mg protein | – | – | – | 72.7 nM |
| O=C1c2ncccc2CCN1CCN1CCN(c2noc3ccccc23)CC1 [Example 1, 7-{2-[4-(1,2-Benzoisoxazol-3-yl)piperazin-1-yl]ethyl}-6,7-dihydro-1,7-naphthyridin-8(5H)-one] | 21.5 nM | 49 nM | – | – | – | 94.7 nM | 50% | 44.6 nM | <0.01 mL/min/mg protein | – | – | > 10000 nM | – |
| O=C1c2ncccc2CCC1CCN1CCC(c2noc3ccccc23)CC1 (stereo not shown) [Example 24] | 13.2 nM | 3.55 nM | – | – | – | 63.2 nM | 31% | 33 nM | 0.018 mL/min/mg protein | – | – | 400 nM | – |
| O=c1c2cncnc2ccn1CCN1CCC(c2noc3ccccc23)CC1 [Example 129] | 51.4 nM | 20 nM | – | – | – | 370 nM | 31% | – | 0.084 mL/min/mg protein | – | – | – | 61.8 nM |
| Cn1cnc2c1C(=O)N(CCN1CCN(c3nsc4ccccc34)CC1)CC2 [Example 56] | 78 nM | 0.11 nM | – | – | – | 66.6 nM | 58% | 6 nM | 0.195 mL/min/mg protein | – | – | 7600 nM | – |
| O=C1c2cnccc2CCN1CCN1CCN(c2nsc3ccccc23)CC1 [Example 18] | 10.6 nM | 3.7 nM | – | – | – | 18 nM | 90% | 36 nM | 0.124 mL/min/mg protein | – | – | 5900 nM | – |
| Cc1noc2c1C(=O)N(CCN1CCN(c3noc4ccccc34)CC1)CC2 [Example 32, 5-{2-[4-(1,2-Benzoisoxazol-3-yl)piperazin-1-yl]ethyl}-3-methyl-6,7-dihydro[1,2]oxazolo[4,5-c]pyridin-4(5H)-one] | 124 nM | 60 nM | – | – | – | 644 nM | 39% | 95 nM | <0.01 mL/min/mg protein | – | – | 5500 nM | – |
| Cc1cc2ccn(CCN3CCN(c4noc5ccccc45)CC3)c(=O)c2cn1 [Example 113, 2-{2-[4-(1,2-Benzoisoxazol-3-yl)piperazin-1-yl]ethyl}-6-methyl-2,7-naphthyridin-1(2H)-one] | 14.4 nM | 3.7 nM | – | – | – | 16 nM | 67% | 8.63 nM | 0.079 mL/min/mg protein | – | – | 7000 nM | – |
| Cn1ncc2c1CCC(CCN1CCC(c3noc4ccccc34)CC1)C2=O (stereo not shown) [Example 28] | 13.8 nM | 1.4 nM | – | – | – | 7.59 nM | 94% | 9.8 nM | 0.017 mL/min/mg protein | – | – | 1400 nM | – |
| O=C1c2cccnc2CCN1CCN1CCC(c2noc3cc(F)ccc23)CC1 [Example 121] | 60.9 nM | 105 nM | – | – | – | – | – | – | <0.05 mL/min/mg protein | – | – | < 300 nM | 57.4 nM |
